Here are results for one compound from patent publication US10093629B2, “Heterocyclic compounds and their use as retinoid-related orphan receptor (ROR) gamma-T inhibitors” (Takeda Pharmaceutical Company Limited, priority 2014, dated 2018).

Assay [1] relates to IL-17 production in human blood. Description: Effect on IL-17 production in human blood. The class given is cell-based. The following applies: 72 h; 10 μM test compound; human peripheral blood, IL-23 and Dynabeads stimulation, 3 days; read-out: percent inhibition at 10 μM (IL-17 production). An outline of the steps: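 Heparinized healthy-donor whole blood pre-incubated with compound 30 min at 37° C, then stimulated with IL-23 (added as 100 ng/mL solution) plus Dynabeads Human for 3 days at 37° C. Supernatant IL-17 measured by ELISA; values given as percent inhibition at 10 μM compound.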

The test system of assay [2] is T cell-transferred mouse colitis model. Kind of assay: T cell-transferred mouse colitis model. Type of assay: in vivo. The settings on record: 3 mg/kg oral twice daily; SCID mice, 21 days after cell transfer; versus the negative control group. From the text:
Effect in a T Cell-Transferred Mouse Colitis Model
Balb/c mice (Charles River Japan, female, 8 weeks old) were euthanized, and the spleens were resected, mashed in mesh, and passed through cell strainer to prepare a suspension of splenic cells. The mononuclear cell fraction in the splenic cells was isolated by density-gradient centrifugation, and subjected to hemolysis treatment with ammonium chloride buffer solution (Immuno-Biological Laboratories, Co., Ltd.). The naive T-cells were purified using CD4+CD62L+ T Cell Isolation Kit II (Miltenyi Biotec). The naive T-cells (2×10^5 cells/mouse) were intravenously transferred into SCIDmice (CLEA Japan, female, 8 weeks old). The compound was suspended in 0.5% methyl cellulose, and the suspension was orally administered twice daily on consecutive days from the same evening of the cell transfer. The mice were blinded 20 days after the cell transfer, and the symptom of the stool on floorcloth under blind was evaluated by scores of 1 to 4 (1: normal, 2: loose stool, 3: diarrhea (formed), 4: diarrhea (unformed)) 21 days after the cell transfer. […] The large intestine was washed with saline, and the weight was measured.
The results (percent inhibition of intestinal tract weight and diarrhea score with oral administration of the test compound) measured by the above-mentioned method are shown in Table 11.

A further assay relates to IL-17A gene expression. Description: Effect on IL-23-induced cytokine expression in mice. The class given is in vivo, mouse. The following applies: 3 mg/kg oral, 30 min before and 8 hr after IL-23; ear of Balb/c mice; versus the negative control group.
The subject of assay [3] is IL-23-induced mouse psoriasis model. Kind of assay: IL-23-induced mouse psoriasis model. Type of assay: in vivo. The settings on record: 3 mg/kg oral twice daily, Balb/c mice, versus the negative control group. The method, then: Effect in an IL-23-Induced Mouse Psoriasis Model
Mouse IL-23 (500 ng/15 μL, R&D) or PBS (15 μL, negative control group) was administered intradermally in the ear of Balb/c mice (Charles River Japan, male, 7 weeks old) 5 times every other days. Seven hr after IL-23 administration at 8 days after the initial administration (final administration), the mice were anesthetized with isoflurane, and ear thickness was measured with calipers. After the ear thickness was measured, the ear was resected, tissue 8 mm in diameter was punched from an area centering on the IL-23 injection site, and the tissue was weighed. The punched ear tissue was cut in half, and one half was immersion-fixed in 10% neutral buffer formalin solution for use in histopathological evaluation. The other half was immersed in RNAlater (QIAGEN) for at least 18 hr for use in an evaluation of the IL-17A mRNA expression level. The test compound was suspended in 0.5% methylcellulose and administered orally twice daily on consecutive days from 30 min before the initial IL-23 administration to 30 min before the final IL-23 administration.
The change in ear thickness in this model was evaluated by calculating the difference in measured thickness between before IL-23 administration and 7 hr after the final IL-23 administration. In addition, the formalin-fixed tissue was embedded and sectioned, then stained with hematoxylin-eosin. The degree of acanthosis was then evaluated qualitatively by microscopy (classified with a score of 0 to 4). RNA extraction from the ear tissue and quantitative PCR were performed as follows. As described above, ear tissue treated with RNAlater (QIAGEN) was homogenized in 350 μL of RLT buffer (RNeasy mini kit, QIAGEN) and treated (55° C., 10 min) with Proteinase K (QIAGEN). Total RNA was then extracted according to the RNeasy mini kit protocol. The RNA thus obtained was reverse transcribed into cDNA using the High-Capacity RNA-to-cDNA kit (Applied Biosystems), and the expression of each gene was measured by real-time PCR (Viia7™, Applied Biosystems). The PCR buffer used was TaqMan Fast Advanced Master Mix (Applied Biosystems), and TaqMan Gene Expression Assays (Applied Biosystems) Mm00439618_m1 (IL-17A) and 4352341E (β-actin) were used to detect the genes. The IL-17A gene expression level was normalized to the β-actin gene expression level, and the percent inhibition of IL-17A gene expression with the test compound was then calculated.
The results (percent inhibition of ear thickness, acanthosis score and IL-17A gene expression with oral administration of the test compound) measured by the above-mentioned method are shown in Table 10.

The next assay concerns mouse EAE model. Description: Mouse EAE model. The class given is in vivo. The following applies: 3 mg/kg oral; C57BL/6J mice; integration value of clinical score for 28 days; versus the negative control group. The method, then: Effect in a Mouse EAE Model
. C57BL/6J mice (10 weeks old, female, Charles River Japan) were grouped based on the body weight, and the MOG emulsion was intradermally administered at two point of the joint of dorsal hindlimb so that the dose was 100 μL/site, 200 μL/mouse. In addition, Pertussis toxin (Merck) was intraperitoneally administered twice on the sensitization day and 2 days thereafter in the dose of 400 ng/200 μL/mouse. The body weight was measured twice a week before onset and everyday (excluding holiday) after onset from the sensitization day. The clinical score was evaluated by the following standard scores of 0 to 5 (0: normal, 0.5: partial paralysis of tail, 1: complete paralysis of tail, 2: partial paralysis of hindlimb, 3: paralysis of lower body, 4: partial paralysis of forelimb, 5: paralysis of both forelimbs or death) by observation everyday (excluding holiday) after the beginning of onset.
The percent inhibition of the clinical score of the test compound administration group relative to that of the control group was calculated using integration value of the clinical score for 28 days.
The results (percent inhibition of clinical score with oral administration of the test compound) measured by the above-mentioned method are shown in Table 12.

As to `COc1ccc2c(n1)CCN(C(=O)[C@H]1C[C@@H](CC(=O)O)C1)[C@H]2C(=O)Nc1cc(F)c2c(c1)CCC2(C)C` [Example 15, (cis-3-(((5R)-5-((7-fluoro-1,1-dimethyl-2,3-dihydro-1H-inden-5-yl)carbamoyl)-2-methoxy-7,8-dihydro-1,6-naphthyridin-6(5H)-yl)carbonyl)cyclobutyl)acetic acid], the inhibition – broadly, the relative decrease from the control value, in per cent – at 10 µM in assay [1] came out at 94%. In assay [2], the “percent inhibition of diarrhea score” value is on record as 81% and the “percent inhibition of intestinal tract weight” value is listed as 58%. The “percent inhibition of IL-17A gene expression” value in the assay with IL-17A gene expression is given as 99%. In assay [3], the “percent inhibition of acanthosis score” value is recorded as 53% and the “percent inhibition of ear thickness” value is 61%. Besides, the “percent inhibition of IL-17A expression” value in assay [3] (ear tissue) is given as 93%. For the same compound, the “percent inhibition of clinical score” value in the assay with mouse EAE model worked out at 64%.
